Assays:
[1] = target: HIS-TGFβR1 T204D (Homo sapiens (Human), UniProt P36897, T204D); assay: HTRF probe displacement assay, HIS-TGFβR1 T204D; format: binding; conditions: 1 nM HIS-TGFβR1 T204D, 1 hour at room temperature, read-out: TGFBR1T204D IC50
Description: (§1) Compounds were dissolved at 10 mM in dimethylsulfoxide (DMSO) and evaluated at eleven concentrations. IC50 values were derived by non-linear regression analysis.

[2] = target: HIS-TGFβR2 WT (Homo sapiens (Human), UniProt P37173); assay: HTRF probe displacement assay, HIS-TGFβR2 WT; format: binding; conditions: 1 nM HIS-TGFβR2 WT, 1 hour at room temperature, read-out: TGFBR2WT IC50
Chain of HIS-TGFβR2 WT (P37173 23-567): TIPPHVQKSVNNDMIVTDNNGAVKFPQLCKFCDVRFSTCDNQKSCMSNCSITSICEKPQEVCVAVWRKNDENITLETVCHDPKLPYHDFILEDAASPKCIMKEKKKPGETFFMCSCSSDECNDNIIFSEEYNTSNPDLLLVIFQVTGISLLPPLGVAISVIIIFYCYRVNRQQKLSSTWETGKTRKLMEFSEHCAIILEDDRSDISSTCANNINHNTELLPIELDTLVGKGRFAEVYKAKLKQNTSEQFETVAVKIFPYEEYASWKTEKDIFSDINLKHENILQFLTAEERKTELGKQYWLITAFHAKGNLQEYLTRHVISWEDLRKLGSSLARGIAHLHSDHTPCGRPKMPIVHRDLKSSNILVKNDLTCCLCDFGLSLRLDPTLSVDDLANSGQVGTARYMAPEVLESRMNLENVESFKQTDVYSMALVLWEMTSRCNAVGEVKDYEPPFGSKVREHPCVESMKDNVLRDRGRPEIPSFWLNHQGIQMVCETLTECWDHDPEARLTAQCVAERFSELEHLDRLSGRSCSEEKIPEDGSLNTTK
Description: as §1

Chain of HIS-TGFβR1 T204D (P36897 34-503 T204D): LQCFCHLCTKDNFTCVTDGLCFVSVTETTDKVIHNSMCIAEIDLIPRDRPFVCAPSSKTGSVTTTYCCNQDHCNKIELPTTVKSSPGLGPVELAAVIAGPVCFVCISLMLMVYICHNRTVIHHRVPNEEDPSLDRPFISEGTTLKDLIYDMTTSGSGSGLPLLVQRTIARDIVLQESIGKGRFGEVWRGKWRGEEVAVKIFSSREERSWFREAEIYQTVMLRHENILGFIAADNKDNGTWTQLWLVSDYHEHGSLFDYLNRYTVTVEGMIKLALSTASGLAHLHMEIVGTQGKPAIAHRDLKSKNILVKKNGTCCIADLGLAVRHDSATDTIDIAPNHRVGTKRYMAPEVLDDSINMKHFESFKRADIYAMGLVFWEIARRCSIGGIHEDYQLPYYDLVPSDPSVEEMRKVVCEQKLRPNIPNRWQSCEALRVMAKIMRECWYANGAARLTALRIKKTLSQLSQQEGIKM

IC50 [1]	IC50 [2]	Compound
10 nM	> 15000 nM	Cc1nc(-c2ncccc2-c2ccc3ncc(C#N)n3c2)ccc1F [Compound 15, 6-(5′-fluoro-6′-methyl-[2,2′-bipyridin]-3-yl)imidazo[1,2-a]pyridine-3-carbonitrile]
9 nM	> 15000 nM	COc1cccc(-c2ncccc2-c2ccc3ncc(C#N)n3c2)n1 [Compound 17, 6-(6′-methoxy-[2,2′-bipyridin]-3-yl)imidazo[1,2-a]pyridine-3-carbonitrile]
397 nM	> 15000 nM	N#Cc1cnc2ccc(-c3cccnc3-c3cccc(F)n3)nn12 [Compound 65, 6-(6′-fluoro-[2,2′-bipyridin]-3-yl)imidazo[1,2-b]pyridazine-3-carbonitrile]
14300 nM	> 15000 nM	NC(=O)c1cnc2ccc(-c3cccnc3-c3ccc(C(=O)O)cn3)cn12 [Compound 27, 3′-(3-carbamoylimidazo[1,2-a]pyridin-6-yl)-[2,2′-bipyridine]-5-carboxylic acid]
3 nM	> 15000 nM	Cc1cccc(-c2ncccc2-c2ccc3nccn3c2)n1 [Compound 47, 6-(6′-methyl-[2,2′-bipyridin]-3-yl)imidazo[1,2-a]pyridine]
5 nM	> 15000 nM	Cc1cccc(-c2ncccc2-c2ccn3nccc3n2)n1 [Compound 138, 5-(6′-methyl-[2,2′-bipyridin]-3-yl)pyrazolo[1,5-a]pyrimidine]
15 nM	> 15000 nM	Cc1cccc(-c2nc(C)ccc2-c2ccc3ncc(C(N)=O)n3c2)n1 [Compound 87]
353 nM	> 15000 nM	CC(=O)Nc1ccc(-c2ccc3ncc(C(N)=O)n3c2)c(-c2cccc(C)n2)n1 [Compound 95, 6-(6-acetamido-6′-methyl-[2,2′-bipyridin]-3-yl)imidazo[1,2-a]pyridine-3-carboxamide]
1020 nM	> 15000 nM	Cc1cccc(-c2ncccc2-c2ccc3nc(C(N)=O)cn3c2)n1 [Compound 80, 6-(6′-methyl-[2,2′-bipyridin]-3-yl)imidazo[1,2-a]pyridine-2-carboxamide]
4 nM	> 15000 nM	Cc1cccc(-c2ncccc2-c2ccc3ncc(C(=O)NCC(F)F)n3c2)n1 [Compound 68, N-(2,2-difluoroethyl)-6-(6′-methyl-[2,2′-bipyridin]-3-yl)imidazo[1,2-a]pyridine-3-carboxamide]
15000 nM	> 15000 nM	CC(C)(O)c1cccc(-c2ncccc2-c2ccc3ncc(C#N)n3c2)n1 [Compound 41]
103 nM	> 15000 nM	N#Cc1cnc2ccc(-c3cccnc3-c3ccccn3)cn12 [Compound 13, 6-([2,2′-bipyridin]-3-yl)imidazo[1,2-a]pyridine-3-carbonitrile]
339 nM	> 15000 nM	CNC(=O)c1cnn2ccc(-c3cccnc3-c3cccc(C(F)(F)F)n3)nc12 [Compound 125, N-methyl-5-(6′-(trifluoromethyl)-[2,2′-bipyridin]-3-yl)pyrazolo[1,5-a]pyrimidine-3-carboxamide]
7650 nM	> 15000 nM	COC(=O)c1ccc(-c2ncccc2-c2ccc3ncc(C(N)=O)n3c2)nc1 [Compound 26, methyl 3′-(3-carbamoylimidazo[1,2-a]pyridin-6-yl)-[2,2′-bipyridine]-5-carboxylate]
9 nM	> 15000 nM	Cc1cccc(-c2ncccc2-c2ccc3nccnc3c2)n1 [Compound 113, 6-(6′-methyl-[2,2′-bipyridin]-3-yl)quinoxaline]
15 nM	> 15000 nM	FC(F)(F)c1cccc(-c2ncccc2-c2ccn3nccc3n2)n1 [Compound 136, 5-(6′-(trifluoromethyl)-[2,2′-bipyridin]-3-yl)pyrazolo[1,5-a]pyrimidine]
42 nM	> 15000 nM	Nc1ncnc2ccc(-c3cccnc3-c3ccc(F)cn3)nc12 [Compound 104, 6-(5′-fluoro-[2,2′-bipyridin]-3-yl)pyrido[3,2-d]pyrimidin-4-amine]
5300 nM	> 15000 nM	Cc1ccc(-c2ncccc2-c2ccc3ncc(C(N)=O)n3n2)nc1 [Compound 56, 6-(5′-methyl-[2,2′-bipyridin]-3-yl)imidazo[1,2-b]pyridazine-3-carboxamide]
24 nM	> 15000 nM	Cc1nc(-c2ncccc2-c2ccn3ncc(C(=O)NC4COC4)c3n2)ccc1F [Compound 133, 5-(5′-fluoro-6′-methyl-[2,2′-bipyridin]-3-yl)-N-(oxetan-3-yl)pyrazolo[1,5-a]pyrimidine-3-carboxamide]
161 nM	> 15000 nM	NC(=O)c1cnc2ccc(-c3cccnc3-c3cc(F)ccn3)nn12 [Compound 60, 6-(4′-fluoro-[2,2′-bipyridin]-3-yl)imidazo[1,2-b]pyridazine-3-carboxamide]
84 nM	> 15000 nM	Cc1cccc(-c2nc(C(F)(F)F)ccc2-c2ccc3ncc(C(N)=O)n3c2)n1 [Compound 90, 6-(6′-methyl-6-(trifluoromethyl)-[2,2′-bipyridin]-3-yl)imidazo[1,2-a]pyridine-3-carboxamide]
652 nM	> 15000 nM	COC(=O)c1ccnc(-c2cccc(C)n2)c1-c1ccc2ncc(C#N)n2c1 [Compound 91, methyl 3-(3-cyanoimidazo[1,2-a]pyridin-6-yl)-6′-methyl-[2,2′-bipyridine]-4-carboxylate]
7 nM	> 15000 nM	Cc1cccc(-c2ncccc2-c2ccc3ncc(C(=O)NCC(F)(F)F)n3c2)n1 [Compound 69, 6-(6′-methyl-[2,2′-bipyridin]-3-yl)-N-(2,2,2-trifluoroethyl)imidazo[1,2-a]pyridine-3-carboxamide]
103 nM	> 15000 nM	N#Cc1cnc2ccc(-c3cccnc3-c3ccc(F)cn3)cn12 [Compound 20, 6-(5′-fluoro-[2,2′-bipyridin]-3-yl)imidazo[1,2-a]pyridine-3-carbonitrile]
130 nM	> 15000 nM	N#Cc1cnc2ccc(-c3cccnc3-c3ccc(F)c(C(F)F)n3)cn12 [Compound 23, 6-(6′-(difluoromethyl)-5′-fluoro-[2,2′-bipyridin]-3-yl)imidazo[1,2-a]pyridine-3-carbonitrile]
1 nM	> 15000 nM	CC(=O)Nc1cn2cc(-c3cccnc3-c3cccc(C)n3)ccc2n1 [Compound 76, N-(6-(6′-methyl-[2,2′-bipyridin]-3-yl)imidazo[1,2-a]pyridin-2-yl)acetamide]
427 nM	> 15000 nM	FC(F)c1cccc(-c2ncccc2-c2ccc3[nH]nc(C(F)F)c3c2)n1 [Compound 118, 3-(difluoromethyl)-5-(6′-(difluoromethyl)-[2,2′-bipyridin]-3-yl)-1H-indazole]
821 nM	> 15000 nM	CC(=O)c1cccc(-c2ncccc2-c2ccc3ncc(C#N)n3c2)n1 [Compound 40, 6-(6′-acetyl-[2,2′-bipyridin]-3-yl)imidazo[1,2-a]pyridine-3-carbonitrile]
22 nM	> 15000 nM	N#Cc1cnc2ccc(-c3cc(F)cnc3-c3cccc(C(F)F)n3)cn12 [Compound 83, 6-(6′-(difluoromethyl)-5-fluoro-[2,2′-bipyridin]-3-yl)imidazo[1,2-a]pyridine-3-carbonitrile]
5230 nM	> 15000 nM	Cc1ccc(-c2ncccc2-c2ccc3ncc(C#N)n3n2)nc1 [Compound 55, 6-(5′-methyl-[2,2′-bipyridin]-3-yl)imidazo[1,2-b]pyridazine-3-carbonitrile]

From US9981944B2, “GDF-8 inhibitors” (Rigel Pharmaceuticals, Inc., priority 2015, dated 2018)
